Where two headings read alike, the source gives them in different places.

The subject of this experiment is ras p21 protein. Description: Ras p21 Nucleotide Exchange Assay (inhibition of ^3H-GDP binding to p21 ras). The class given is biochemical. On the procedure:
Ras p21 Nucleotide Exchange Assay
The conditions for assay of nucleotide exchange inhibitors was adapted from Hall, A. and A. J. Self. 1986 J. Biol. Chem. 261: 10963-10965, which is hereby incorporated by reference.
0.5 μM ras p21 protein was incubated in 50 μls exhange buffer (50 mM Tris-HCl pH 7.5, 5 mM MgCl2, 50 mM NaCl and […]) on ice. Compounds dissolved in dimethyl sulfoxide (DMSO) were added to the desired concentration such that the final concentration of DMSO in the reaction mixture was 2% by weight. The reaction was incubated for 5 minutes on ice and then ^3 H-GDP (final concentration was 0.25 μM) was added.
Biological data are given throughout the specification in one of two forms: either as per cent inhibitions, or as the concentration at which the test compound causes 50% inhibition (IC50) of the binding of ^3 H-GDP to the p21 ras protein.
When the above assay was run at one concentration of the test compound, then the data was given as per cent inhibition at a particular concentration. […] When the assay was run at a series of concentrations, then the data were given as IC50 's.

[1] abbreviates: read-out: IC50 in the ras p21 assay.
Where [2] appears, read: table 3, concentration causing 50% inhibition of ^3H-GDP binding, read-out: ras 21 assay (IC50).
Setting [3] is: table 4 (arabinose derivatives), 50 μM.

In the case of `COc1ccc2nc3nn([C@@H]4O[C@H](COC(=O)c5ccccc5)[C@@H](OC(=O)c5ccccc5)[C@@H]4OCc4ccccc4)c(C)c3c(Cl)c2c1`, the “ras p21 Assay (per cent inhibition)” value (50 μM) came out at 32%. Take `COc1ccc2nc3c(cc2c1)c(C)nn3[C@@H]1O[C@H](COC(=O)c2ccccc2)[C@@H](O)[C@H]1O`: the IC50 under setting [1] was 50 µM. Take `COc1ccc2nc3c(c(C)nn3[C@@H]3O[C@H](COC(=O)c4ccccc4)[C@H]4OC(C)(C)O[C@H]43)c(OCCN(C)C)c2c1`: the “inhibition in the ras p21 assay” value (100 μM) stood at 59%. Same read-out and setting: the value for `COc1ccc2nc3c(c(C)nn3[C@@H]3O[C@H](COC(=O)c4ccccc4)[C@@H](OC(=O)c4ccccc4)[C@H]3OC(=O)c3ccccc3)c(OCCN(C)C)c2c1` was 12%. On to `Cc1nn([C@@H]2O[C@H](COC(=O)c3ccccc3)[C@@H](OC(=O)c3ccccc3)[C@H]2OC(=O)c2ccccc2)c2nc3ccc(O)cc3c(Cl)c12`, for which, under setting [1], the IC50 stood at 10 µM. Turning to `COc1ccc2nc3c(c(C)nn3[C@@H]3O[C@H](COC(=O)c4ccccc4)[C@@H](OC(=O)c4ccccc4)[C@H]3OC(=O)c3ccccc3)c(NCCN3CCOCC3)c2c1`, where the note is “100 μM”, the “inhibition in the ras p21 assay” value is 86%. As for `COc1ccc2nc3c(c(C)nn3[C@@H]3O[C@H](/C=C/C(=O)c4ccccc4)[C@@H](O)[C@H]3O)c(Cl)c2c1`, under setting [2], the IC50 stood at 10 µM.

`COc1ccc2nc3c(c(C)nn3[C@@H]3O[C@H](C(O)CC(=O)c4ccccc4)[C@@H](O)[C@H]3O)c(Cl)c2c1` (stereo partly shown): where the note is “table 3, 50 μM”, the “ras 21 assay (per cent inhibition)” value is reported as 34%. Same read-out and setting: the value for `COc1ccc2nc3c(c(C)nn3-c3ccc(/C=C/C(=O)c4ccccc4)o3)c(Cl)c2c1` was 61%. Regarding `COc1ccc2nc3c(c(C)nn3[C@@H]3O[C@H](/C=C/C(=O)c4ccccc4)[C@H]4OC(C)(C)O[C@H]43)c(Cl)c2c1`, the “ras 21 assay (per cent inhibition)” value (table 3, 100 μM) came out at 53%. For `COc1ccc2nc3c(c(C)nn3[C@H]3C=C[C@@H](/C=C/C(=O)c4ccccc4)O3)c(Cl)c2c1`, the IC50 under setting [2] was found to be 35 µM. For the compound `COc1ccc2nc3c(c(C)nn3[C@H]3C=C[C@@H](C(O)CC(=O)c4ccccc4)O3)c(Cl)c2c1` (stereo partly shown), the “ras 21 assay (per cent inhibition)” value (table 3, 50 μM) was found to be 48%. Consider `COc1ccc2nc3c(c(C)nn3[C@H]3C=C[C@@H](CCC(=O)c4ccccc4)O3)c(Cl)c2c1`, for which, under “table 3, 100 μM”, the “ras 21 assay (per cent inhibition)” value is reported as 53%. The same measure, in the same setting: the same measure for `COc1ccc2nc3c(c(C)nn3[C@H]3CC[C@@H](COC(=O)c4ccccc4)O3)c(Cl)c2c1`: 38%. Turning to `COc1ccc2nc3c(c(C)nn3[C@@H]3O[C@H](COC(=O)CC(C)C)[C@@H](OC(=O)CC(C)C)[C@H]3OC(=O)CC(C)C)c(Cl)c2c1`, where the note is “table 2, 50 μM”, the “ras p21 Assay (per cent inhibition)” value turned out to be 33%. Take `COc1ccc2nc3c(c(C)nn3[C@@H]3O[C@H](COC(=O)c4cc(C)ccc4C)[C@@H](OC(=O)c4cc(C)ccc4C)[C@H]3OC(=O)c3cc(C)ccc3C)c(Cl)c2c1`: where the note is “table 2, 100 μM”, the “ras p21 Assay (per cent inhibition)” value was found to be 37%. Same read-out and setting: the value for `COc1ccc(C(=O)OC[C@H]2O[C@@H](n3nc(C)c4c(Cl)c5cc(OC)ccc5nc43)[C@H](OC(=O)c3ccc(OC)cc3)[C@@H]2OC(=O)c2ccc(OC)cc2)cc1` was 44%. For the compound `COc1ccc2nc3c(c(C)nn3[C@@H]3O[C@H](COC(=O)c4ccccc4)[C@H]4OC(=S)O[C@H]43)c(Cl)c2c1` [(CO)Ph OC(S)O], the IC50 (table 2, concentration causing 50% inhibition of ^3H-GDP binding, read-out: ras p21 Assay (IC50)) came to 15 µM. On to `COc1ccc2nc3c(c(C)nn3[C@@H]3O[C@H](COCc4ccccc4)[C@@H](OCc4ccccc4)[C@@H]3OCc3ccccc3)c(Cl)c2c1` [CH2 OBn OBn OBn Cl], for which, under setting [3], the “p21 ras assay (per cent inhibition)” value stood at 31%. Same read-out and setting: the same measure for `COc1ccc2nc3c(c(C)nn3[C@@H]3O[C@H](COC(=O)c4ccccc4)[C@@H](OC(=O)c4ccccc4)[C@@H]3OC(=O)c3ccccc3)c(Cl)c2c1` [CH2 OBz OBz OBz Cl]: 17%. In the case of `COc1ccc2nc3c(cc2c1)c(C)nn3[C@@H]1O[C@H](COC(=O)c2ccccc2)[C@@H](OC(=O)c2ccccc2)[C@@H]1OC(=O)c1ccccc1` [CH2 OBz OBz OBz H], the IC50 (table 4 (arabinose derivatives), concentration causing 50% inhibition of ^3H-GDP binding, read-out: p21 ras assay (IC50)) was 10 µM. With `COc1ccc2nc3c(c(C)nn3[C@@H]3O[C@H](CO)[C@@H](O)[C@@H]3O)c(Cl)c2c1` [CH2 OH OH OH Cl], the “p21 ras assay (per cent inhibition)” value under setting [3] stood at 18%.

The values are drawn from US5595998A, “Pyrazoloquinolines” (priority 1994, dated 1997).
